Results published in patent publication US20240100063A1, “COMBINATION THERAPY OF PD-1 AXIS BINDING ANTAGONISTS AND LRRK2 INHITIBORS” (Hoffmann-La Roche Inc., priority 2020, published 2024).
Entries after “also recorded” stand apart in the source; their conditions may differ.

Legend:
LRRK2 = LRRK2 (Homo sapiens, UniProt Q5S007); assay: KINOMEScan in vitro kinase selectivity assay, LRRK2; format: binding
Protocol: (§1) The in vitro kinase selectivity for the tested compounds were determined by running a KINOMEScan® (DiscoverX, CA, USA). […] Selectivity scores S(65), S(90) and S (99) in FIG. 11 are calculated as the ratio of number of non-mutated kinases inhibited by 65%, 90 or 99% divided by the total number of non-mutated kinases tested.

MC-38 tumor cells [1] = assay: in vivo tumor growth, immuno-deficient NSG mice engrafted with MC-38 tumor cells; set-up: species or system mouse
Protocol: (§2) The experiment was carried out with 6-8 weeks female NSG mice from Jackson Laboratory. All procedures described in this study have been reviewed and approved by the local ethic committee (CELEAG) and validated by the French Ministry of Research. Mice was hosted in TCS BSL-2 facility by groups of 5 individuals. Mice were allowed to acclimate to the environment for 5 days prior to the beginning of the experiment. During the efficacy study, mice were monitored daily for unexpected signs of distress. Body weight was monitored 3 times a week. Mice with a cumulative clinical score or with a body weight loss >25% were sacrificed.
Mice were injected subcutaneously with 0.5×10^6 MC-38 tumor cells in 50% Matrigel. Tumor cell engraftment was defined as day zero. At day 9, mice were randomized into 2 groups of 12 mice each, according to the tumor volume. Treatments were initiated at day 10, when the average tumor volume reached ˜150 mm3 as follows: • Group 1: vehicle, dose 200 μL twice per day per os • Group 2: GNE-7915: dose 300 mg/kg per os administration twice per day.
GNE-7915 (cat. num. HY-18163 from MedChemExpress). LRRK2 inhibitor was administered as free base suspensions in vehicle [1% (w/v) Avicel RC-591 and 0.2% (v/v) polysorbate 80 (Tween 80) in reverse osmosis water].
The aim of this study was to address the in vivo effect on tumor progression of LRRK2 kinase inhibition by using the LRRK2 inhibitor GNE-7915, in immuno-deficient mice engrafted with MC-38 tumor cells. NSG mice were injected subcutaneously with 0.5×10^6 MC-38 tumor cells. Tumor cell engraftment was defined as day zero. At day 9, mice were randomized into 2 groups.
Mice were injected subcutaneously with 0.5×10^6 MC-38 tumor cells in 50% Matrigel. Tumor cell engraftment was defined as day zero. At day 9, mice were randomized into 2 groups of 12 mice each, according to the tumor volume.
PFE-360 (cat. num. HY-120085 from MedChemExpress). […] LRRK2 inhibitors were administered as free base suspensions in vehicle [1% (w/v) Avicel RC-591 and 0.2% (v/v) polysorbate 80 (Tween 80) in reverse osmosis water]. […]

[2] = system: MC38 RFP-OVA cancer cells
Description: (§3) A, E) Schematic representation of the killing assay experimental setup respectively in mouse and human setting. […] Data are normalized to DMSO treated dendritic cells co-cultured with CD8a T cells. F) Evaluation of MV3 cancer cells viability upon co-cultured with MART-1 T Cells primed by human cord blood derived dendritic cells pre-treated with the LRRK2 inhibitor LRRK2-IN-1. Data are normalized to MV3 cells co-cultured with T cells primed in the absence of MART1 peptide. All the experiments were performed in triplicates.
(§4) Subsequently, we investigate whether the pre-treatment of freshly isolated mouse splenic dendritic cells with increasing concentrations of the compounds can enhance the OT-1 CD8a T cells activation upon co-culture. […] Finally, as for the genetic validation in DC2.4, we challenge the splenic derived dendritic cells treated with the different compounds in a killing assay were we measured the MC38 RFP-OVA cancer cell viability upon 6 days of co-culture with OT-1 CD8a T cells primed by mouse splenic dendritic cells pre-treated with the two LRRK2 inhibitors (FIG. 5-A).

403 non-mutated kinases = assay: KINOMEScan in vitro kinase selectivity assay; format: binding, human; details: for number of different kinases whose binding is inhibited by 90% or more: at 0.1 μM, 403 non-mutated kinases; for number of unrelated kinases inhibited to >90%: at lowest concentration to inhibit >90 LRRK2 (0.1 uM)
Protocol: FIG. 10: In vitro kinase selectivity test. […] As a reference, the pan-kinase inhibitor sunitinib was tested.
As a reference, the pan-kinase inhibitor sunitinib was tested.
Kinases other than LRRK2 are herein referred to as unrelated kinases. A selectivity score S can be determined to quantify selectivity, as shown in Example 8. In one embodiment, the selectivity score S(65) of the inhibitor (e.g. the LRRK2 inhibitor) is defined as the ratio of number of kinases inhibited by 65% of binding to their ligand as compared to binding to their ligand without the inhibitor divided by the number of kinases tested. In one embodiment, the selectivity score S(90) of the inhibitor (e.g. the LRRK2 inhibitor) is defined as the ratio of number of kinases inhibited by 90% of binding to their ligand as compared to binding to their ligand without the inhibitor divided by the number of kinases tested. In one embodiment, the selectivity score S(99) of the inhibitor (e.g. the LRRK2 inhibitor) is defined as the ratio of number of kinases inhibited by 99% of binding to their ligand as compared to binding to their ligand without the inhibitor divided by the number of kinases tested. In one embodiment, the selectivity score S is determined for a specified concentration (e.g., 0.1 μM, 1 μM, or 10 μM) of the inhibitor (e.g. the LRRK2 inhibitor). Kinase—ligand binding (and inhibition thereof) can be measured using assays as known in the art and hereinbefore described and as described in Example 8.
as §1

MC-38 tumor cells [3] = assay: in vivo tumor growth, immunocompetent C57BL/6 mice engrafted with MC-38 tumor cells; details: anti-PD-L1 10 mg/kg i.v. once then 5 mg/kg i.p. twice per week; for MC-38 tumor growth in comparison with vehicle treated mice: PFE-360 7.5 mg/kg, Mli-2 10 mg/kg per os twice per day, day zero to day 28
Protocol: as §2, with “C57BL/6” for “NSG”, “Janvier Labs.” for “Jackson Laboratory.”
Mice were injected subcutaneously with 0.5×10^6 MC-38 tumor cells in 50% Matrigel. Tumor cell engraftment was defined as day zero. At day 8, mice were randomized into 4 groups of 10 mice each, according to the tumor volume. Treatments were initiated at day 9, when the average tumor volume reached ˜150 mm3 as follows: • Group 1: vehicle, dose 200 μL twice per day per os, twice per week intraperitoneal and intravenously once at day 8 • Group 2: 7915: dose 300 mg/kg per os administration twice per day. • Group 3: anti PD-L1 (clone 6E11, atezolizumab mouse surrogate): dose 10 mg/kg intravenous injection once at day 8 and dose 5 mg/kg intraperitoneal injection twice per week. • Group 4: 7915+anti-PD-L1 (clone 6E11, atezolizumab mouse surrogate): dose 300 mg/kg per os injection twice per day. Anti PD-L1: dose 10 mg/kg intravenous injection once at day 8 and dose 5 mg/kg intraperitoneal injection twice per week.
7915 (cat. num. HY-18163 from MedChemExpress). LRRK2 inhibitor was administered as free base suspensions in vehicle [1% (w/v) Avicel RC-591 and 0.2% (v/v) polysorbate 80 (Tween 80) in reverse osmosis water].
The aim of this study was to address the in vivo effect on tumor progression of LRRK2 kinase inhibition by using the LRRK2 inhibitor 7915, alone or in combination with anti-PD-L1, in immunocompetent mice engrafted with MC-38 tumor cells. C57BL/6 mice were injected subcutaneously with 0.5×10^6 MC-38 tumor cells. Tumor cell engraftment was defined as day zero. […]

OT-1 CD8a T cells = assay: OT-1 CD8a T cell proliferation upon co-culture with dendritic cells pre-treated with LRRK2 inhibitors; format: cell-based, mouse
Protocol: (§5) Cells were stained with anti-mouse H-2Kb/[…] antibody. […] F) FACS evaluation of human MART-1 T cell proliferation, upon co-culture with human cord blood derived dendritic cells pre-treated with the LRRK2 inhibitor LRRK2-IN-1. All the experiments were performed in triplicates.
as §4

MV3 cancer cells = assay: killing assay: MV3 viability upon co-culture with MART-1 T cells primed by pre-treated human cord blood derived dendritic cells; format: cell-based; details: 6 days killing assay, increasing concentration, human setting
Description: as §3, §4

DC2.4 SCR cells = assay: antigen cross-presentation assay on DC2.4 cells (FACS, anti-mouse H-2Kb/[…] antibody); format: cell-based; details: overnight administration
Protocol: as §5, §4

MART-1 T Cells = assay: MART-1 T cell proliferation upon co-culture with pre-treated human cord blood derived dendritic cells; format: cell-based; details: human MART-1 T cells primed by human cord blood derived dendritic cells, FIG. 4-F
Protocol: as §5, §4

[4] = PFE-360 7.5 mg/kg, Mli-2 10 mg/kg per os twice per day, day zero to day 24

Chain of LRRK2 (Q5S007 whole entry): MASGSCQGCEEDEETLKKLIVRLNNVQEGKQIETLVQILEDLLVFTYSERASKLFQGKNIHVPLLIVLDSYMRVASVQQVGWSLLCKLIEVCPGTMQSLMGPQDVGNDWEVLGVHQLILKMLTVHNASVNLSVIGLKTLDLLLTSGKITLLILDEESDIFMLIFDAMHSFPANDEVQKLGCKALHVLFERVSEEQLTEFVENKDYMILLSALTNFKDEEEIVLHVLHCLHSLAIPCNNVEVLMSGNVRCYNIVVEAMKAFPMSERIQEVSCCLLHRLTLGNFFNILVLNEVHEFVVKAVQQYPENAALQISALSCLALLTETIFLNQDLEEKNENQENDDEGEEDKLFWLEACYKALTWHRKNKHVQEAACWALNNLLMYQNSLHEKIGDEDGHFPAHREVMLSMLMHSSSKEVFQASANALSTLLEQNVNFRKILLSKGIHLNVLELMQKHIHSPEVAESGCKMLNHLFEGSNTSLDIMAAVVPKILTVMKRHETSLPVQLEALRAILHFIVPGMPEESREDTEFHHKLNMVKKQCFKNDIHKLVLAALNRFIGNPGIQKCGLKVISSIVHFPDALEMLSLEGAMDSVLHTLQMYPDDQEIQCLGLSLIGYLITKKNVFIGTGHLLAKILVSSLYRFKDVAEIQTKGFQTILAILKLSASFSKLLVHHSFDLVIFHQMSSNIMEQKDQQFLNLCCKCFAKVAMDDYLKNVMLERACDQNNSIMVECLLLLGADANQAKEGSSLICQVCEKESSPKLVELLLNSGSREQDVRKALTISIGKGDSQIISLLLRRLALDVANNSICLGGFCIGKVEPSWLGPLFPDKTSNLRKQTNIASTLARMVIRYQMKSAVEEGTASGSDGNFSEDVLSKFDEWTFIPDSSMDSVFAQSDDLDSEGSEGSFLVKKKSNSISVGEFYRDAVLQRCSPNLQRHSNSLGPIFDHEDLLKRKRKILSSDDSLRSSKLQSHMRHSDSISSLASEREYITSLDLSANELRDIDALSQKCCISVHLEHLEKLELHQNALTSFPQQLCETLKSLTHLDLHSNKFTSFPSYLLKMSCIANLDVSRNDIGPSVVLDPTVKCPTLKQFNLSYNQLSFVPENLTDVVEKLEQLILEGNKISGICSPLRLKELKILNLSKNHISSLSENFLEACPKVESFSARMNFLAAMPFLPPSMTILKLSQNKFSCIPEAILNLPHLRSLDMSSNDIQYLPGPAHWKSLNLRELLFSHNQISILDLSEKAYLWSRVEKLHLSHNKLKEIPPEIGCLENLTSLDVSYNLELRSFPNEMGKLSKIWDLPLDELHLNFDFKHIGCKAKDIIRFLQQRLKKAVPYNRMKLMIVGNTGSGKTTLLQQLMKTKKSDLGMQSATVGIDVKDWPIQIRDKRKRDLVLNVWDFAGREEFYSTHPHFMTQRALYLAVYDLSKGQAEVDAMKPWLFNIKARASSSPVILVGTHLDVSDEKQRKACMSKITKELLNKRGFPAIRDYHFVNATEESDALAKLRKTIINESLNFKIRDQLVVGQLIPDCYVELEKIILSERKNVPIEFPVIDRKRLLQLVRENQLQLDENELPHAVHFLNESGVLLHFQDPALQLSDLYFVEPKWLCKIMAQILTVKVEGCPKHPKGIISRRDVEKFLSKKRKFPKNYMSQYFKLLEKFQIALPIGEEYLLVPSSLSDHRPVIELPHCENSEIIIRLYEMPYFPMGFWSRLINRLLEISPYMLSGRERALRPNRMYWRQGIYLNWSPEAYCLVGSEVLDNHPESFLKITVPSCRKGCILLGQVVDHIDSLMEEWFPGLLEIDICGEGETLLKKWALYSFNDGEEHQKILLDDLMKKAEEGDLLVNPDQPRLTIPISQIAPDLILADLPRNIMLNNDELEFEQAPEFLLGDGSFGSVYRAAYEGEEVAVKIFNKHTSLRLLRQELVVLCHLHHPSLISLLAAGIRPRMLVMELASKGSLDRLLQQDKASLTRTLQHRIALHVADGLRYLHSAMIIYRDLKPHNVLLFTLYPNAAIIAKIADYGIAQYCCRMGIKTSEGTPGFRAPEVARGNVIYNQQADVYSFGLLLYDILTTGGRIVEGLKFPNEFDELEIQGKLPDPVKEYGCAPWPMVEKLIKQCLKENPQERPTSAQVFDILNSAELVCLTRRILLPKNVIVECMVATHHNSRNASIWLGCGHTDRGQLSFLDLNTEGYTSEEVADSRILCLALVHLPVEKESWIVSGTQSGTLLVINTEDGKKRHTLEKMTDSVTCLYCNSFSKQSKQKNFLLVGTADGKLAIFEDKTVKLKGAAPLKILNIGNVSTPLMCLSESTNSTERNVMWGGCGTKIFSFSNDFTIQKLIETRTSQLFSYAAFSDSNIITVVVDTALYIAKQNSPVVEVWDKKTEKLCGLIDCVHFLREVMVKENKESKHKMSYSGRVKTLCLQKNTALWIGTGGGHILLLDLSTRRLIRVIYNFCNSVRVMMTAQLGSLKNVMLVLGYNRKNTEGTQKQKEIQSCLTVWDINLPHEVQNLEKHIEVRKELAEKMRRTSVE

Row | Structure (SMILES) | inhibition at 0.1 µM (LRRK2) [%] | MC-38 tumor growth in comparison with vehicle treated mice (MC-38 tumor cells [1]; [4]) | T cell mediated cytotoxicity (MC38 RFP-OVA cancer cell viability) [2] | number of different kinases whose binding is inhibited by 90% or more (403 non-mutated kinases) | number of unrelated kinases inhibited to >90% (403 non-mutated kinases) | MC-38 tumor growth in comparison with vehicle treated mice (MC-38 tumor cells [3]) | further results
1 | CCN(CC)CCNC(=O)c1c(C)[nH]c(/C=C2\C(=O)Nc3ccc(F)cc32)c1C [sunitinib] | < 50 | – | – | – | – | – | –
2 | C[C@@H]1CN(c2cc(-c3n[nH]c4ccc(OC5(C)CC5)cc34)ncn2)C[C@H](C)O1 [MLi-2, cis-2,6-dimethyl-4-[6-[5-(1-methylcyclopropoxy)-1H-indazol-3-yl]pyrimidin-4-yl]morpholine] | – | not modifying tumor growth; also recorded: not impacting MC-38 tumor growth | increased T cell mediated cytotoxicity | three | 3 | inducing tumor growth inhibition; also recorded: significantly decrease MC-38 tumor growth | –
3 | CNc1nc(Nc2cnn(C3CCN(C4COC4)CC3F)c2Cl)ncc1C(F)(F)F (stereo not drawn) [compound 9605, N2-[5-chloro-1-[3-fluoro-1-(oxetan-3-yl)-4-piperidyl]pyrazol-4-yl]-N4-methyl-5-(trifluoromethyl)pyrimidine-2,4-diamine] | – | – | increased T cell mediated cytotoxicity | – | – | – | concentration at which increased T cell proliferation is shown (OT-1 CD8a T cells; OT-1 CD8a T cells co-cultured with pre-treated mouse splenic dendritic cells): ≥ 100 nM
4 | Cn1cc(-c2c[nH]c3ncnc(N4CCOCC4)c23)cc1C#N [PFE-360, 1-methyl-4-(4-morpholino-7H-pyrrolo[2,3-d]pyrimidin-5-yl)pyrrole-2-carbonitrile] | 100 | not modifying tumor growth; also recorded: not impacting MC-38 tumor growth | – | 9 | 9 | inducing tumor growth inhibition; also recorded: significantly decrease MC-38 tumor growth | fold more selective than sunitinib (403 non-mutated kinases; at all concentration on average): ~2 fold
5 | COc1cc(C(=O)N2CCC(N3CCN(C)CC3)CC2)ccc1Nc1ncc2c(n1)N(C)c1ccccc1C(=O)N2C [LRRK2-IN-1, 2-[2-methoxy-4-[4-(4-methylpiperazin-1-yl)piperidine-1-carbonyl]anilino]-5,11-dimethyl-pyrimido[4,5-b][1,4]benzodiazepin-6-one] | – | – | – | – | – | – | MV3 cancer cell viability (MV3 cancer cells): dose dependent reduction of MV3 cancer cell viability; concentration showing an effect on antigen cross-presentation (DC2.4 SCR cells): 1 µM; cross-presentation mediated T cell proliferation (MART-1 T Cells): already at lowest concentration a stable increase; also recorded: increased the T cells proliferation
6 | CCNc1nc(Nc2cc(F)c(C(=O)N3CCOCC3)cc2OC)ncc1C(F)(F)F [compound 7915, [4-[[4-(ethylamino)-5-(trifluoromethyl)pyrimidin-2-yl]amino]-2-fluoro-5-methoxy-phenyl]-morpholino-methanone] | – | – | increased T cell mediated cytotoxicity | – | – | – | MC-38 tumor growth in comparison with vehicle treated mice (MC-38 tumor cells [1]; GNE-7915 300 mg/kg per os twice per day, day zero to day 21, 300 mg/kg): not modifying tumor growth; also recorded: not impacting MC-38 tumor growth; cross-presentation mediated T cell proliferation (OT-1 CD8a T cells; murine OT1 CD8a T cells, FIG. 4-H): already at lowest concentration a stable increase; tumor growth inhibition (MC-38 tumor cells [3]; MC-38, vs vehicle, 7915 300 mg/kg per os twice per day, day zero to day 15): 82%
